Here are results for four molecules from patent US20160081312A1, “MODEL OF ALZHEIMER'S DISEASE” (priority 2013, published 2016).

For assay [1], the system named is APP. As to the kind of experiment: APP level in cultured rat neurons and astrocytes. In kind it is cell-based, wistar rat. As to conditions: memantine 5 μM, donepezil 10 μM, docosahexaenoic acid 10 μM; for Fold reduction in APP: metal mixture-induced, rat astrocytes and neurons, α-tocopherol 10 μM; for effect on levels of APP in the cellular model of AD: Vitamin E 10 μM. As to the method:
(§1) The pregnant wistar rats were sacrificed by cervical dislocation and the embryos were removed on the 16th day of gestation. The embryonic brain tissues were mechanically dissociated into individual cells in dissection media containing Glucose (1M), sucrose (1 M), HEPES Buffer (1M) and Hank's salt (1×). The resulting cells were centrifuged (1,500 rpm, 5 min), resuspended in NEUROBASAL medium containing B-27 supplement (Invitrogen, Carlsbad, Calif.), L-glutamine (0.5 mM), penicillin (100 U/ml) and streptomycin (100 μg/ml) and plated into 60 mm dishes. The culture media was changed every 2 days.
(§2) The astrocytes from rat brain were isolated and cultured. Briefly, prefrontal cortices of 1-day-old wistar rats were dissected out and digested with trypsin for 10 min at 37° C. A single cell suspension was obtained by triturating, and the cells were seeded onto poly-L-lysine (100 μg/ml)-coated plates. The cultures were maintained in DMEM/F12 with 10% heat-inactivated fetal bovine serum, 100 U/ml penicillin, and […] streptomycin. The confluent cells were rinsed twice with serum-free media and then detached with 0.25% trypsin with ethylenediaminetetraacetic acid and sub-cultured.
(§3) The astrocytes and neurons were grown to 80% confluence, pre-incubated in reduced serum (0.5% fetal bovine serum [FBS]) medium for 2 h, and then treated with a mixture of As, Cd, and Pb (Group 1 and 2, Table 2 for neurons, and Table 3 for astrocytes) in the form of NaAsO2, CdCl2 and Pb(C2H3O2)2, respectively in Milli Q water for 16 h, and incubated in a humidified tissue culture incubator at 37° C. with 5% CO2-95% air. The NaAsO2, and CdCl2 readily dissolved in water, while Pb(C2H3O2)2 was dissolved by adding 0.043% acetic acid in water. To identify the synergistic nature, the astrocytes and neurons were treated with metal mixture as well as individual metals (Group 1-5 of Table 2 for neurons, and Table 3 for astrocytes).
(§4) The astrocytes and neurons were treated, washed with PBS and suspended in 100 μl of CelLytic™ MT Cell Lysis Reagent protease inhibitor cocktail (a mixture of 4-(2-aminoethyl)benzenesulfonyl fluoride, pepstatinA, E-64, bestatin, leupeptin, and aprotinin)] and kept on ice for 20 min. The cells were homogenized using a Teflon homogenizer and centrifuged at 15,000 rpm for 30 min at 4° C., and the supernatant was collected. SDS-PAGE and western blotting was done with APP (1:1000), Aβ-40 (1:1000), Aβ-42 (1:1000), IL-1α(1:1000), IL-1β (1:1000) and IL-1R1. […] The samples were detected by chemiluminescence with super signal west femto max substrate. Relative expression of each protein was determined by densitometric quantification of blots using VersaDoc Gel Imaging System (BioRad, Hercules, CF). […]

The subject of assay [2] is Aβ. Kind of assay: Aβ level in cultured rat neurons and astrocytes. In kind it is cell-based, wistar rat. As to conditions: memantine 5 μM, donepezil 10 μM, docosahexaenoic acid 10 μM; for Fold reduction in Aβ: metal mixture-induced, rat astrocytes and neurons, α-tocopherol 10 μM; for effect on levels of Aβ in the cellular model of AD: Vitamin E 10 μM. As to the method:
as §1, §2, §3, §4

For assay [3], the system named is APP. As to the kind of experiment: APP level in rat brain cortex and hippocampus, western blotting. The assay is classed as in vivo, wistar rat. How it is done: (§5) All animal-handling procedures were carried out in accordance with the current regulations of the Indian Institute of Toxicology Research Animal Ethics Committee, and with its prior approval for using the animals. The pregnant female wistar rats were housed in a 12-h […] cycle environment with ad libitum diet and water. The rats were divided into six groups (n=30 per group), gavage-treated with the metal mixture (Table 1). The metal mixture treatment was at two concentrations (1× and 10×; Groups 1-3, Table 1) for dose-dependent study. To identify the synergistic nature, the animals were treated in mixture as well as individually with the metals (Group 1-6 of Table 1). The heavy metals were As, Cd and Pb, fed in the form of NaAsO2, CdCl2 and Pb(C2H3O2)2, respectively, in Milli Q water. The NaAsO2, and CdCl2 readily dissolved in water, while Pb(C2H3O2)2 was dissolved by adding 0.043% acetic acid in water. The dams (pregnant rats and lactating mother rats) were daily treated with the metals in water from gestation day 5 (G-05) until the pups weaned (postnatal day-21, P-21). From P-22, the postnatal rats were directly treated with the metals until P-90. The tissues were collected at P-24, P-60 or P-90. The male rats were selected for the study, and rats from separate litters served as independent subjects.
(§6) Tissues of the cerebral cortex and hippocampus from five to seven postnatal wistar rats were harvested, snap-frozen in liquid nitrogen, and stored at −80° C. until further investigation. SDS-PAGE and western blotting was performed with APP (1:1000), Aβ-40 (1:1000), Aβ-42 (1:1000), APP-CTF-β (1:1000), presenilin (1:1000), IL-1α (1:1000), IL-1β (1:1000) and IL-1R1 (1:1000), RAGE (1:1000) and pGP (1:1000). […] The samples were detected by chemiluminescence with super signal west femto max substrate. Relative expression of each protein was determined by densitometric quantification of blots using VersaDoc Gel Imaging System (BioRad, Hercules, CF). […]

The subject of assay [4] is Aβ-40. As to the kind of experiment: Aβ1-40 level in rat cortex and hippocampus, ELISA. The assay is classed as in vivo, wistar rat. How it is done:
as §5

For assay [5], the system named is Aβ-42. As to the kind of experiment: Aβ-42 level in rat brain cortex and hippocampus, western blotting. The assay is classed as in vivo, wistar rat. As to the method: as §5, §6
Where [6] appears, read: memantine 10 mg/kg body weight, donepezil 1.5 mg/kg body weight.
[7] abbreviates: metal mixture-induced, rat brain, two week treatment, memantine 10 mg/kg, donepezil 1.5 mg/kg with 10X-MM in P-90 rats.
The mark [8] stands for this setting: hippocampal insertion, once at P-90 in 10X-MM-treated rats, dissected after 10 days.

Turning to `CC/C=C\C/C=C\C/C=C\C/C=C\C/C=C\C/C=C\CCC(=O)O` [Docosahexaenoic acid], in assay [1], the “Fold reduction in APP” value came to 1.25 ± 0.0265 fold. The “Fold reduction in Aβ” value in assay [2] was 2.3 ± 0.0853 fold.
As for `CC12CC3CC(C)(C1)CC(N)(C3)C2` [Memantine], in assay [1], the “effect on levels of APP in the cellular model of AD” value was “suppressed” and the “Fold reduction in APP” value is 1.3 ± 0.0392 fold. In assay [3] (setting [6]), the “effect on APP in the non-transgenic wistar rat model of AD” value is “suppress”. Moreover, in assay [3] (setting [7]), the “Fold reduction in APP” value turned out to be 1.69 ± 0.0510 fold. Further, the “effect on Aβ1-40 in the non-transgenic wistar rat model of AD” value in assay [4] (setting [6]) is listed as “suppress”. Besides, the “fold reduction in Aβ-40” value in assay [4] (setting [7]) stood at 2.54 ± 0.0099 fold. The “effect on Aβ1-42 in the non-transgenic wistar rat model of AD” value in assay [5] (setting [6]) was “suppress”. Besides, the “fold reduction in Aβ-42” value in assay [5] (setting [7]) worked out at 2.42 ± 0.0143 fold. Besides, in assay [2], the “effect on levels of Aβ in the cellular model of AD” value was “suppressed” and the “Fold reduction in Aβ” value is recorded as 1.4 ± 0.052 fold.
Turning to `Cc1c(C)c2c(c(C)c1O)CC[C@@](C)(CCC[C@H](C)CCC[C@H](C)CCCC(C)C)O2` [α-tocopherol], in assay [1], the “effect on levels of APP in the cellular model of AD” value was “suppressed”. Further, the “effect on levels of Aβ in the cellular model of AD” value in assay [2] is listed as “suppressed”.

B1: IL1-Ra: Rat recombinant IL-1 receptor antagonist, R&D systems (protein, UniProt P25086 27-178, looked up)
Interleukin-1 receptor …: HPAGKRPCKMQAFRIWDTNQKTFYLRNNQLIAGYLQGPNTKLEEKIDMVPIDFRNVFLGIHGGKLCLSCVKSGDDTKLQLEEVNITDLNKNKEEDKRFTFIRSETGPTTSFESLACPGWFLCTTLEADHPVSLTNTPKEPCTVTKFYFQEDQ
Take B1: the “effect on APP in As, Cd and Pb-mixture treated rat brain” value in assay [3] (setting [8]) is given as “suppressed”. In addition, in assay [5] (setting [8]), the “effect on Aβ1-42 in As, Cd and Pb-mixture treated rat brain” value is recorded as “suppressed”.
